Where a name gives a salt, the structure may show the parent alone.
Assays:
[1] = Anderson cascade impactor (ACI) test of the inhalation aerosol (deposition rate per plate, FPF); type: physicochemical; conditions: for Fine Particle Fraction (FPF) (lung): in single or compound preparations (MDI); for FPF of glycopyrronium bromide (%) / FPF of indacaterol maleate (%): inhalation aerosol prepared directly from micronized powder(s), no co-micronization; for Fine Particle Fraction (in words): prepared as a suspension-type inhalation aerosol
Method: Prescription amounts of glycopyrronium bromide and indacaterol maleate were added to an aluminum can, valve-sealed, and filled with propellant, HFA-134a. After being inverted for 2 days, it was tested according to 0951, volume IV general rules of the Pharmacopoeia of the People's Republic of China 2015 Edition. The sum of the deposition from the stage plate 3 to the filter membrane is the Fine Particle Dose (FPD). The FPD (less than 5 μm) divided by the total amount collected by the Anderson cascade impactor (Total Dose, TD) is the Fine Particle Fraction (FPF).
Micronized powders were precisely weighed and placed in a 14 mL fluorocarbon polymerization (FCP)-coated aluminum can, valve-sealed, filled, ultrasonicated for 10 minutes, and then kept for 2 days for Anderson cascade impactor testing. It was tested according to 0951 device 2, volume IV general rules of the Pharmacopoeia of the People's Republic of China 2015 Edition. The relative humidity of the test environment should be 45% to 55%. The flow rate was adjusted to 28.3±1.5 liters per minute. Take 1 bottle of this product, shake it sufficiently, and discard 4 sprays. Wipe the mouthpiece with ethanol, dry it sufficiently, turn on the vacuum pump, shake for 5 seconds (note that shake for 5 seconds before each spray and the interval between sprays is 30 seconds), insert the product into the adapter, and spray once immediately. After removing the aluminum can and the driver, shake for 5 seconds, reinsert into the adapter, and immediately spray the second time. Repeat this process until the completion of 10 sprays. After the last spray, wait 1 minute, then remove the aluminum can and driver, turn off the vacuum pump, and remove the device. The various plates of the Anderson impactor were washed with a specific ratio of methanol aqueous solution, and the content of the drugs deposited on each plate was determined by HPLC.

[2] = particle size test of micronized powder (D10, D50, D90, SPAN); type: physicochemical; conditions: fine powder used for direct mixing
Excerpt: In the invention, D90 is described as the volume of particles smaller than a certain particle size (x) accounts for 90% of the total volume of the particles, D50 is described as the volume of particles smaller than a certain particle size (x) accounts for 50% of the total volume of the particles, and D10 is described as the volume of particles smaller than a certain particle size (x) accounts for 10% of the total volume of the particles.
The pressure of the jet mill was decreased and the above steps were repeated, in order to investigate the effect of pressure (10 bar, 8 bar, 4 bar, 3 bar, 2 bar) on the particle size of the glycopyrronium bromide/indacaterol maleate mixture, the Fine Particle Fraction of glycopyrronium bromide and the degree of co-deposition of the two active ingredients.

C[N+]1(C)CCC(OC(=O)C(O)(c2ccccc2)C2CCCC2)C1 (stereo not shown) [glycopyrronium bromide]
Fine Particle Fraction (FPF) (lung) [1]: 15-20% | FPF of glycopyrronium bromide (%) [1]: 25.68% | FPF of glycopyrronium bromide (%) ([1]; listed as glycopyrronium bromide fine powder): 24% | Fine Particle Fraction (in words) [1]: low | D90 [2]: 3.43 μm

CCc1cc2c(cc1CC)CC(NC[C@H](O)c1ccc(O)c3[nH]c(=O)ccc13)C2 [indacaterol maleate]
Fine Particle Fraction (FPF) (lung) [1]: 40-50% | FPF of indacaterol maleate (%) [1]: 45.66% | FPF of indacaterol maleate (%) ([1]; listed as indacaterol fine powder): 45% | Fine Particle Fraction (in words) [1]: high | D90 [2]: 3.84 μm

From patent US20220192978A1, “Pharmaceutical Inhalation Aerosol and Preparation Method Therefor” (CF PharmTech, Inc., priority 2019, published 2022)
